# Data as given in PMC9036627, “Global update on the susceptibility of human influenza viruses to neuraminidase inhibitors, 2013–2014” (Antiviral research, 2015).
# How the values were obtained:
# [1] = tested on: neuraminidase (NA) of B/Yamagata-lineage viruses; type: biochemical, influenza B/Yamagata-lineage virus; settings: for IC50 fold-change compared to reference median IC50 values: B/Yamagata-lineage, no NA amino acid substitution (None), n=3, range
# [2] = tested on: neuraminidase (NA) of B/Victoria-lineage viruses; type: biochemical, influenza B/Victoria-lineage virus; settings: B/Victoria-lineage, no NA amino acid substitution (None); n=3; range
# [3] = tested on: neuraminidase (NA) of B/Yamagata-lineage viruses; parameters: method as in Oakley et al., 2010; settings: B/Yamagata-lineage virus, observed before, ref Oakley et al., 2010; cited from earlier work
compound,measurement,setting,value
"[H]/N=C(\N)N[C@H]1C=C(C(=O)O)O[C@@H]([C@H](OC)[C@H](O)CO)[C@@H]1NC(C)=O [Laninamivir, laninamivir]",Included in phenotypic analysis: inhibition category (HRI/RI/NI),[1],"Yes (RI to zanamivir, oseltamivir, peramivir and laninamivir) (key: NI < 5-fold; RI 5 to 50-fold; HRI > 50-fold)"
same,IC50 fold-change compared to reference median IC50 values,[1],0.6–5.1 fold
same,IC50 fold-change compared to reference median IC50 values,[2],0.7–4.7 fold
"CCOC(=O)C1=C[C@@H](OC(CC)CC)[C@H](NC(C)=O)[C@@H](N)C1 [Oseltamivir, oseltamivir]",IC50 fold-change compared to reference median IC50 values,[1],1.7–10 fold
same,IC50 fold-change compared to reference median IC50 values,[2],0.6–4.1 fold
"CCC(CC)[C@H](NC(C)=O)[C@@H]1[C@H](O)[C@@H](C(=O)O)C[C@H]1N=C(N)N [Peramivir, peramivir]",inhibition category conferred by NA D197N,[3],RI (RI 5 to 50-fold)
same,IC50 fold-change compared to reference median IC50 values,[1],2.0–7.8 fold
same,IC50 fold-change compared to reference median IC50 values,[2],0.9–6.5 fold
"CC(=O)N[C@H]1[C@H]([C@H](O)[C@H](O)CO)OC(C(=O)O)=C[C@@H]1N=C(N)N [Zanamivir, zanamivir]",inhibition category conferred by NA D197N,[3],RI (RI 5 to 50-fold)
same,Included in phenotypic analysis: inhibition category (HRI/RI/NI),[1],"Yes (RI to zanamivir, oseltamivir, peramivir and laninamivir) (key: NI < 5-fold; RI 5 to 50-fold; HRI > 50-fold)"
same,IC50 fold-change compared to reference median IC50 values,[1],0.9–5.3 fold
same,IC50 fold-change compared to reference median IC50 values,[2],0.7–8.7 fold
